Experimental data from the NIST ThermoML archive (doi:10.1016/j.jct.2012.03.013).

How the values were obtained:
[1] = refractive index (Na D-line) (dimensionless); settings: 298.15 K; 101.33 kPa; Liquid; Standard Abbe refractometry
[2] = Liquid; for speed of sound: Pulse-echo method

OCCCCO [1,4-butanediol]
Settings	refractive index
[1]	1.4447

[2]
Settings	mass density [kg/m3]
293.15 K, 100 kPa, Acoustic method	1015.74
293.15 K, 101.33 kPa, Vibrating tube method	1015.74
298.15 K, 100 kPa, Acoustic method	1012.78
298.15 K, 101.33 kPa, Vibrating tube method	1012.78
298.15 K, 10000 kPa, Acoustic method	1016.99
298.15 K, 20000 kPa, Acoustic method	1021.1
298.15 K, 30000 kPa, Acoustic method	1025.06
298.15 K, 40000 kPa, Acoustic method	1028.89
303.14 K, 101.33 kPa, Vibrating tube method	1009.78
303.15 K, 100 kPa, Acoustic method	1009.77
303.15 K, 10000 kPa, Acoustic method	1014.06
303.15 K, 20000 kPa, Acoustic method	1018.23
303.15 K, 30000 kPa, Acoustic method	1022.25
303.15 K, 40000 kPa, Acoustic method	1026.13
303.15 K, 50000 kPa, Acoustic method	1029.88
303.15 K, 60000 kPa, Acoustic method	1033.51
303.15 K, 70000 kPa, Acoustic method	1037.04
303.15 K, 80000 kPa, Acoustic method	1040.47
303.15 K, 90000 kPa, Acoustic method	1043.8
308.15 K, 100 kPa, Acoustic method	1006.76
308.15 K, 101.33 kPa, Vibrating tube method	1006.76
308.15 K, 10000 kPa, Acoustic method	1011.12
308.15 K, 20000 kPa, Acoustic method	1015.35
308.15 K, 30000 kPa, Acoustic method	1019.42
308.15 K, 40000 kPa, Acoustic method	1023.35
308.15 K, 50000 kPa, Acoustic method	1027.15
308.15 K, 60000 kPa, Acoustic method	1030.83
308.15 K, 70000 kPa, Acoustic method	1034.41
308.15 K, 80000 kPa, Acoustic method	1037.87
308.15 K, 90000 kPa, Acoustic method	1041.25
308.15 K, 100000 kPa, Acoustic method	1044.53
313.14 K, 101.33 kPa, Vibrating tube method	1003.72
313.15 K, 100 kPa, Acoustic method	1003.73
313.15 K, 10000 kPa, Acoustic method	1008.15
313.15 K, 20000 kPa, Acoustic method	1012.44
313.15 K, 30000 kPa, Acoustic method	1016.57
313.15 K, 40000 kPa, Acoustic method	1020.56
313.15 K, 50000 kPa, Acoustic method	1024.41
313.15 K, 60000 kPa, Acoustic method	1028.14
313.15 K, 70000 kPa, Acoustic method	1031.76

[2]
Settings	speed of sound [m/s]
298.07 K, 15200 kPa	1649.2
298.07 K, 30390 kPa	1693.3
298.08 K, 45590 kPa	1735.4
298.11 K, 100 kPa	1602.1
298.15 K, 101.33 kPa	1601.8
303.15 K, 101.33 kPa	1589.9
303.15 K, 60790 kPa	1763.6
303.15 K, 70920 kPa	1789.3
303.15 K, 75990 kPa	1801.9
303.15 K, 91180 kPa	1837.8
303.16 K, 30390 kPa	1682.4
303.16 K, 45590 kPa	1724.1
303.16 K, 50660 kPa	1738
303.17 K, 100 kPa	1590.2
303.17 K, 15200 kPa	1637.6
308.14 K, 15200 kPa	1626.6
308.14 K, 30390 kPa	1671.6
308.14 K, 45590 kPa	1713.7
308.14 K, 75990 kPa	1792
308.14 K, 91180 kPa	1828.2
308.14 K, 101320 kPa	1851.7
308.15 K, 100 kPa	1578.4
308.15 K, 101.33 kPa	1578.5
308.15 K, 60790 kPa	1753.3
313.09 K, 15200 kPa	1614.6
313.09 K, 30390 kPa	1660.5
313.1 K, 45590 kPa	1703
313.1 K, 60790 kPa	1743.5
313.1 K, 75990 kPa	1782
313.1 K, 91180 kPa	1819
313.1 K, 101320 kPa	1842.1
313.12 K, 100 kPa	1567
313.15 K, 101.33 kPa	1566.7
